Results taken from ChEMBL document CHEMBL1201862, “PubChem BioAssay data set” (2004).
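Protocol summary: plate cells (96-well), add compound at 5 concentrations, incubate 48 h, interpolate endpoints linearly. At the GI50, growth is halved.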 Calls of active or inactive are those of the source. Rule as the data show it: active = GI50 up to about 1.1 µM and inactive = higher.

Experiments:
Test in all cases: NCI anticancer screen, dose series, 48 h
[1] = system: EKVX
[2] = system: SK-MEL-2
[3] = system: OVCAR-3
[4] = system: RXF 393
[5] = system: IGROV-1
[6] = system: Malme-3M
[7] = system: UACC-257
[8] = system: SF-295
[9] = system: NCI-H460
[10] = system: SNB-75
[11] = system: RPMI-8226
[12] = system: 786-0
[13] = system: TK-10
[14] = system: CAKI-1
[15] = system: MOLT-4
[16] = system: BT-549
[17] = system: SNB-78
[18] = system: SK-OV-3
[19] = system: M14
[20] = system: SK-MEL-5

Measured: GI50

Oc1ncc(N(CCCl)CCCl)c(O)n1 [URACIL MUSTARD]
inactive: [1] 85.7 µM | [2] > 97.3 µM | [3] 74.6 µM | [4] 20.7 µM | [5] 81.3 µM | [6] 32.8 µM | [7] 51.1 µM | [8] 14.7 µM | [9] 3.48 µM | [10] 26.3 µM | [11] 41.6 µM | [12] 10 µM | [13] 110 µM | [14] 4.33 µM | [15] 1.59 µM | [16] 38.5 µM | [17] 79.6 µM | [18] 47.2 µM | [19] 20.7 µM | [20] 41.8 µM
